Test results as given in patent publication US20260226096A1, “MODIFIED PROTEINS OR PEPTIDES FOR COVALENT TARGETING” (YEDA RESEARCH AND DEVELOPMENT CO. LTD., priority 2023, published 2026).
Non-standard residues stand in square brackets, D forms with d. Residues, ends and D or L forms follow the SMILES beside them. Primed or numbered codes have the meaning given here. No end group written: not given here. *: point of attachment. Pra′ = its azide, alkyne or alkene has reacted where a group follows in round brackets; methacrylate = methacrylate-modified cysteine (mC); pT = C[C@@H](OP(=O)(O)O)[C@H](N)C(=O)O; mC = methacrylate-modified cysteine; pS = N[C@@H](COP(=O)(O)O)C(=O)O; BODIPY = not defined here; Dab = NCC[C@H](N)C(=O)O; X1 = C=C(C*)C(=O)OCC; ClAc = O=C(CCl)*

Experiments:
14-3-3 isoforms = experiment: Binding to 14-3-3 isoforms using LC-MS qTOF; settings: protein:peptide 1:5, overnight, 4° C.
Description: The 14-3-3 isoforms were buffer-exchanged into complexation buffer (20 mM HEPES pH 7.5, 100 mM NaCl, 10 mM MgCl2) and mixed with the peptides (3/8) in a 1:5 molar stoichiometry (protein:peptide) at a final concentration of 10 mg/mL. The complexes were buffer-exchanged into milliQ+0.1% formic acid after overnight incubation at 4° C.
UPLC-QToF-MS analysis was performed on a Waters (Milford, MA, USA) Acquity I-Class UPLC system coupled to a Waters Xevo G2 quadrupole time-of-flight (QToF) mass spectrometer. The devices were controlled by MassLynx Software (version 4.1, Waters, MA, USA). Full scan in positive electrospray ionization (ESI+) mode was used as MS acquisition mode with an acquisition range from 200-2000 m/z. […] The samples concentration were 0.01-0.1 mg/mL, and the injection volume was 1 μL. Deconvolution was performed by the MaxEnt1 option of the MassLynx software. Errors were calculated using the MaxEnt Errors option.

[1] = Peptide stability in buffer and intrinsic reactivity with lysine and cysteine; format: physicochemical; settings: room temperature, timescale of days
Description: The intrinsic reactivity and stability of the active peptides with their labeling rates were compared). Their stability was tested in buffer and in the presence of lysine and cysteine at room temperature. […] The reactivity towards cysteine was much higher—the peptides reacted with cysteine to generate both Michael adducts as well as substitution products in which the thiol peptide is released. Peptides SEQ ID 3, SEQ ID 8 and SEQ ID 11 were more than >50% reacted within 2.5 hours.
The LS/MS runs for peptides were performed using the same instrument with a C18-CSH column (300 Å, 1.7 μm, […]) using a gradient starting from 1% B for 1 minute, rising to 95% B in 4.5 minutes, holding at 95% B for 0.75 minutes, then decreasing to 1% B in 0.75 minutes and holding at 1% B for 1 minute. MS data were collected at a range of 80-2500 m/z, using identical conditions for ionization as with the protein.

14-3-3σ [2] = molecular target: T1, 14-3-3σ (Homo sapiens, UniProt P31947); experiment: Covalent labeling of 14-3-3σ by peptides, intact protein LC/MS; settings: for labeling of 14-3-3σ within 5 hours / labeling of 14-3-3σ after 48 hours / covalent labeling of 14-3-3σ with the expected adduct mass: 14-3-3σ 2 μM; for labeling of 14-3-3σ within 5 hours: time course; for labeling of 14-3-3σ after 48 hours: room temperature; for covalent labeling of 14-3-3σ with the expected adduct mass: peptide 200 μM, 4° C. overnight
T1 sequence (P31947 with tags, fused parts or gaps): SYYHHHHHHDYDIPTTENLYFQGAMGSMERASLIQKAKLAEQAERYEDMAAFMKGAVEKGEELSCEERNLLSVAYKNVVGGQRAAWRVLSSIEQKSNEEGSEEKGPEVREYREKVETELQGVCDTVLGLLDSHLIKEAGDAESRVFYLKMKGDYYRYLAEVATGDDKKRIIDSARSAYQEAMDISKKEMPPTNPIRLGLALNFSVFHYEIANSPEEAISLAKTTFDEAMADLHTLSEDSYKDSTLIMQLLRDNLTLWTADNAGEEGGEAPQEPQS

14-3-3σ [3] = molecular target: T1, 14-3-3σ; experiment: Fluorescence polarization competition/binding experiment; settings: 14-3-3σ 0.25 μM, fluorescent peptide 5 nM, 27° C., immediately after mixing
[4] = Differential scanning fluorimetry for Im-E9 complexes; format: physicochemical; settings: SYPRO Orange, protein 40 μM
Description: SYPRO Orange (X5000 stock) was diluted 200-fold in buffer, and from this stock 13 μl were added to each sample, diluting the protein to 40 μM. Each sample were split into 3 technical replicates and heated in a thermal cycler over 1.5 hours to 95° C. while measuring the fluorescence.

[5] = molecular target: T2, human 14-3-3σ with an N-terminal His6-tag (SEQ ID 28) (human); experiment: not told how it was measured; probe of the fluorescence polarization experiment
T2 chain: T1 sequence (P31947 with tags, fused parts or gaps)

[6] = molecular target: T2, human 14-3-3σ with an N-terminal …; experiment: intact protein LC/MS; 200 µM peptide, 2 µM 14-3-3σ, 4° C. overnight
[7] = molecular target: T2, human 14-3-3σ with an N-terminal …; experiment: time course, intact protein LC/MS; 5 µM peptide, 2 µM 14-3-3σ
[8] = molecular target: T2, human 14-3-3σ with an N-terminal …; experiment: 2 µM 14-3-3σ with 5 µM peptide, 48 hours at room temperature

Ac-RAHpSSPASLX-NH2 (Ac-RAH[pS]SPASL[Dab](ClAc)-NH2) [SEQ ID 12, chloroacetamide warhead peptide that reacts with 14-3-3σ via Cys38, used as a positive control]
labeling of 14-3-3 isoforms (14-3-3 isoforms): labeled only the sigma isoform

C=C(CSC[C@H](NC(=O)[C@H](COP(=O)(O)O)NC(=O)[C@H](Cc1c[nH]cn1)NC(=O)[C@H](C)NC(=O)[C@H](CCCNC(=N)N)NC(C)=O)C(=O)N1CCC[C@H]1C(=O)N[C@@H](C)C(=O)N[C@@H](CO)C(=O)N[C@@H](CC(C)C)C(=O)N[C@@H](CCC(N)=O)C(N)=O)C(=O)OCC [SEQ ID 8, Ac-RAHpSmCPASLQ-NH2] (Ac-RAH[pS]C(X1)PASLQ-NH2)
stability in buffer over days [1]: formed a new product with the same mass as the original peptide | labeling of 14-3-3σ within 5 hours (14-3-3σ [2]; peptide 5 μM, 25° C.): 80% | labeling of 14-3-3σ after 48 hours (14-3-3σ [2]; peptide 5 μM): 90% | covalent labeling of 14-3-3σ with the expected adduct mass (14-3-3σ [2]): 35%

Ac-SHpTLmCS-NH2 (Ac-SH[pT]LC(methacrylate)S-NH2) [SEQ ID 2]
displacement of the fluorescent binder at 200 μM (14-3-3σ [3]; peptide 200 μM): all peptides except peptide SEQ ID 2 displaced the binder

Im9: immunity protein, inhibitory partner of the E9 nuclease, in its free (unmodified) form
unfolding (melting) temperature [4]: around 50 °C

C=C(CSC[C@H](NC(=O)[C@H](CO)NC(=O)[C@H](C)NC(=O)[C@@H]1CCCN1C(=O)[C@H](CO)NC(=O)[C@H](COP(=O)(O)O)NC(=O)[C@H](Cc1c[nH]cn1)NC(=O)[C@H](C)NC(=O)[C@H](CCCNC(=N)N)NC(C)=O)C(=O)N[C@@H](CCC(N)=O)C(N)=O)C(=O)OCC [SEQ ID 11, Ac-RAHpSSPASmCQ-NH2] (Ac-RAH[pS]SPASC(X1)Q-NH2)
stability in buffer over days [1]: formed a new product with the same mass as the original peptide | labeling of 14-3-3σ after 48 hours (14-3-3σ [2]; peptide 5 μM): 100% | free (non-labelled) 14-3-3σ remaining within 2.5 hours (14-3-3σ [2]; peptide 5 μM, 25° C.): less than 5% | covalent labeling of 14-3-3σ with the expected adduct mass (14-3-3σ [2]): 11%

Ac-RAHpSSPAmCLQ-NH2 (Ac-RAH[pS]SPAC(methacrylate)LQ-NH2) [SEQ ID 10]
displacement of the fluorescent binder at 5 μM (14-3-3σ [3]; peptide 5 μM): had sufficient affinity to displace the fluorescent binder

C=C(CSC[C@H](NC(=O)[C@H](COP(=O)(O)O)NC(=O)[C@H](C)NC(=O)[C@H](CO)NC(=O)[C@H](CCCNC(=N)N)NC(C)=O)C(=O)N1CCC[C@H]1C(=O)N[C@@H](CO)C(=O)N[C@@H](CC(C)C)C(N)=O)C(=O)OCC [SEQ ID 3, Ac-RSApSmCPSL-NH2] (Ac-RSA[pS]C(X1)PSL-NH2)
stability in buffer over days [1]: remained unmodified even after 3 days | labeling of 14-3-3σ within 5 hours (14-3-3σ [2]; peptide 5 μM, 25° C.): 60% | labeling of 14-3-3σ after 48 hours (14-3-3σ [2]; peptide 5 μM): ~ 75% | covalent labeling of 14-3-3σ with the expected adduct mass (14-3-3σ [2]): 51%

[Pra′](BODIPY)RAH[pS]PASL[Dab] (not fully specified (N-terminus, C-terminus); reading uncertain) [BODIPY-labeled noncovalent binder for 14-3-3σ (SEQ ID 38)]
Kd [5]: ~100 nM

Ac-RSA[pS][mC]PSL-NH2 [Peptide SEQ ID 3, Ac-RSApSmCPSL-NH2]
covalent labeling (%) [6]: 51% | fold increase of the rate of labeling at 37° C. against 25° C. [7]: ~4 fold | covalent labeling (%) [8]: ~75%

Ac-SH[pT][mC]PS-NH2 [Peptide SEQ ID 1, Ac-SHpTmCPS-NH2]
covalent labeling (%) [6]: ~10%

Ac-RAH[pS][mC]PASLQ-NH2 [Peptide SEQ ID 8, Ac-RAHpSmCPASLQ-NH2]
covalent labeling (%) [6]: 35% | fold increase of the rate of labeling at 37° C. against 25° C. [7]: ~4 fold | covalent labeling (%) [8]: 90%

Ac-RAH[pS]SPASC(methacrylate)Q-NH2 [Peptide SEQ ID 11, Ac-RAHpSSPASmCQ-NH2]
covalent labeling (%) [6]: 11% | covalent labeling (%) [8]: 100%
